Where “and” joins values, the source holds several entries; their conditions need not be identical. Equal entries are not always repeated. Where two headings read alike, the source gives them in different places.
Tests used:
[1] = tested on: ebolavirus (EBOV) strain Zaire; experiment: organism not typed; type: cell-based, Ebola virus; conditions: read-out: EC50 (nM) Antigen expression (high content imaging) Ebola Hela
[2] = tested on: EBOV-GFP (Ebola virus expressing the GFP reporter gene); experiment: microbe, parasite or virus in culture; type: cell-based; conditions: Zaire ebolavirus, Huh-7, read-out: EC50 (nM) Reporter Virus EBOV-GFP Huh-7
[3] = tested on: ebolavirus (EBOV) strain Zaire; experiment: organism not typed; type: cell-based, Ebola virus; conditions: read-out: EC50 (nM) Antigen expression (high content imaging) Ebola Macrophage
[4] = tested on: EBOV-GFP (Ebola virus expressing the GFP reporter gene); experiment: microbe, parasite or virus in culture; type: cell-based; conditions: read-out: EC50 (nM) Reporter Virus EBOV-GFP HMVEC-TERT
[5] = tested on: EBOV-Luc (Ebola virus expressing the luciferase reporter gene); experiment: microbe, parasite or virus in culture; type: cell-based; conditions: Zaire ebolavirus, Huh-7, read-out: EC50 (nM) Reporter Virus EVOV-Luc Huh-7
[6] = tested on: NiV GFP (Nipah virus expressing the GFP reporter gene); experiment: microbe, parasite or virus in culture; type: cell-based; conditions: Henipavirus nipahense, read-out: EC50 (nM) Reporter Virus NiV GFP HMVEC-TERT
[7] = tested on: NiV-Luc (Nipah virus expressing the luciferase reporter gene); experiment: microbe, parasite or virus in culture; type: cell-based; conditions: Henipavirus nipahense, read-out: EC50 (nM) Reporter Virus NiV Luc HMVEC-TERT
NiV (Nipah virus) [8] = experiment: microbe, parasite or virus in culture; type: cell-based; conditions: Henipavirus nipahense, HeLa, read-out: EC50 (nM) CPE NiV Hela
NiV (Nipah virus) [9] = experiment: microbe, parasite or virus in culture; type: cell-based; conditions: Henipavirus nipahense, HeLa, read-out: EC50 (nM) Yield NiV Hela
[10] = tested on: MARV-GFP (Marburg virus expressing the GFP reporter gene); experiment: organism not typed; type: cell-based; conditions: Huh-7, read-out: EC50 (nM) Reporter Virus MARV-GFP Huh-7
Ebola virus (EBOV) [11] = experiment: microbe, parasite or virus in culture; type: cell-based; conditions: Zaire ebolavirus, Huh-7, read-out: EC50 (nM) RNA Ebola Huh-7
Ebola virus (EBOV) [12] = experiment: microbe, parasite or virus in culture; type: cell-based; conditions: Zaire ebolavirus, Huh-7, read-out: EC50 (nM) Yield Ebola Huh-7

CCC(CC)COC(=O)[C@H](C)N[P@@](=O)(OC[C@H]1O[C@@](C#N)(c2ccc3c(N)ncnn23)[C@H](O)[C@@H]1O)Oc1ccccc1 (single isomer, unassigned) [(R)-Diastereomer of Compound 9] was tested, and the EC50 ([1]; HeLa) was 210 nM, the EC50 [2] was 70 nM and the EC50 ([3]; Macrophage) was 112 nM. The EC50 ([4]; Zaire ebolavirus) was 62 nM.

CCC(CC)COC(=O)[C@H](C)N[P@](=O)(OC[C@H]1O[C@@](C#N)(c2ccc3c(N)ncnn23)[C@H](O)[C@@H]1O)Oc1ccccc1 (single isomer, unassigned) [(S)-Diastereomer of Compound 9 (Compound 32)] was tested, and the EC50 ([1]; HeLa) was 100 nM, the EC50 [2] was 81 nM and the EC50 ([3]; Macrophage) was 87 nM. The EC50 ([4]; Zaire ebolavirus) was 40 nM.

CC(C)OC(=O)[C@H](C)NP(=O)(OC[C@H]1O[C@@](C#N)(c2ccc3c(N)ncnn23)[C@H](O)[C@@H]1O)Oc1ccccc1 (stereo in doubt) [Compound 23, (S)-isopropyl 2-(((R)-(((2R,3S,4R,5R)-5-(4-aminopyrrolo[2,1-f][1,2,4]triazin-7-yl)-5-cyano-3,4-dihydroxytetrahydrofuran-2-yl)methoxy)(phenoxy)phosphoryl)amino)propanoate] gave an EC50 ([1]; HeLa) of 1650 nM, an EC50 [1] of 1840 nM and an EC50 ([3]; Macrophage) of 243 nM. For the same compound, the EC50 [3] was 350 nM and 297 nM and the EC50 ([4]; Zaire ebolavirus) was 458 nM.

For N#C[C@@]1(c2ccc3c(N)ncnn23)O[C@H](CO)[C@@H](O)[C@H]1O [Compound 1, (2R, 3R, 4S, 5R)-2-(4-aminopyrrolo[1,2-f][1,2,4]triazin-7-yl)-3,4-dihydroxy-5-(hydroxymethyl)tetrahydrofuran-2-carbonitrile], the EC50 ([1]; HeLa) was greater than 20000 nM, the EC50 [5] was 3130 nM and the EC50 [6] was 13400 nM. The EC50 [7] was 3500 nM, the EC50 [2] was 1490 nM and the EC50 (NiV (Nipah virus) [8]) was 1480 nM. It also gave an EC50 ([3]; Macrophage) greater than 20000 nM, an EC50 ([4]; Zaire ebolavirus) of 771 nM and an EC50 (NiV (Nipah virus) [9]) of 1000 nM. The EC50 [10] was 1730 nM.

Compound CCC(CC)COC(=O)[C@H](C)NP(=O)(OC[C@H]1O[C@@](C#N)(c2ccc3c(N)ncnn23)[C@H](O)[C@@H]1O)Oc1ccccc1 (stereo partly drawn) [Compound 9, (2S)-2-ethylbutyl 2-(((((2R,3S,4R,5R)-5-(4-aminopyrrolo[2,1-f][1,2,4]triazin-7-yl)-5-cyano-3,4-dihydroxytetrahydrofuran-2-yl)methoxy)(phenoxy)phosphoryl)amino) propanoate] has an EC50 ([1]; HeLa) of 290 nM, an EC50 [1] of 270 nM and an EC50 (Ebola virus (EBOV) [11]) of 1 nM. The EC50 [6] was 60 nM, the EC50 [7] was 30 nM and the EC50 [2] was 90 nM. It also gave an EC50 [3] of 501 nM and an EC50 (Ebola virus (EBOV) [12]) of 1030 nM.

CCOC(=O)[C@H](C)NP(=O)(OC[C@H]1O[C@@](C#N)(c2ccc3c(N)ncnn23)[C@H](O)[C@@H]1O)Oc1ccccc1 (stereo partly drawn) [Compound 10, (2S)-ethyl 2-(((((2R,3S,4R,5R)-5-(4-aminopyrrolo[2,1-f][1,2,4]triazin-7-yl)-5-cyano-3,4-dihydroxytetrahydrofuran-2-yl)methoxy)(phenoxy)phosphoryl)amino)propanoate] showed an EC50 ([1]; HeLa) of 3200 nM.

CC(C)(C)C(=O)SCCOP(=O)(OCCSC(=O)C(C)(C)C)OC[C@H]1O[C@@](C#N)(c2ccc3c(N)ncnn23)[C@H](O)[C@@H]1O [Compound 15] was tested, and the EC50 ([1]; HeLa) was 520 nM, the EC50 [2] was 271 nM and the EC50 ([3]; Macrophage) was 501 nM. It also gave an EC50 ([4]; Zaire ebolavirus) of 630 nM.

With CCOC(=O)[C@H](Cc1ccccc1)NP(=O)(OC[C@H]1O[C@@](C#N)(c2ccc3c(N)ncnn23)[C@H](O)[C@@H]1O)Oc1ccccc1 (stereo partly drawn) [Compound 21, (2S)-ethyl 2-(((((2R,3S,4R,5R)-5-(4-aminopyrrolo[2,1-f][1,2,4]triazin-7-yl)-5-cyano-3,4-dihydroxytetrahydrofuran-2-yl)methoxy)(phenoxy)phosphoryl)amino)-3-phenylpropanoate] the EC50 ([3]; Macrophage) was 270 nM, the EC50 ([4]; Zaire ebolavirus) was 905 nM and the EC50 [4] was 473 nM.

CCOC(=O)[C@@H](NP(=O)(OC[C@H]1O[C@@](C#N)(c2ccc3c(N)ncnn23)[C@H](O)[C@@H]1O)Oc1ccccc1)C(C)C (stereo partly drawn) [Compound 22, (2S)-ethyl 2-(((((2R,3S,4R,5R)-5-(4-aminopyrrolo[2,1-f][1,2,4]triazin-7-yl)-5-cyano-3,4-dihydroxytetrahydrofuran-2-yl)methoxy)(phenoxy)phosphoryl)amino)-3-methylbutanoate] showed an EC50 ([1]; HeLa) of 11600 nM.

C[C@H](NP(=O)(OC[C@H]1O[C@@](C#N)(c2ccc3c(N)ncnn23)[C@H](O)[C@@H]1O)Oc1ccccc1)C(=O)OC1CCC1 (stereo partly drawn) [Compound 24, (2S)-cyclobutyl 2-(((((2R,3S,4R,5R)-5-(4-aminopyrrolo[2,1-f][1,2,4]triazin-7-yl)-5-cyano-3,4-dihydroxytetrahydrofuran-2-yl)methoxy)(phenoxy)phosphoryl)amino)propanoate] showed an EC50 ([1]; HeLa) of 785 nM.

CC(C)OC(=O)[C@H](Cc1ccccc1)NP(=O)(OC[C@H]1O[C@@](C#N)(c2ccc3c(N)ncnn23)[C@H](O)[C@@H]1O)Oc1ccccc1 (stereo partly drawn) [Compound 25, (2S)-isopropyl 2-(((((2R,3S,4R,5R)-5-(4-aminopyrrolo[2,1-f][1,2,4]triazin-7-yl)-5-cyano-3,4-dihydroxytetrahydrofuran-2-yl)methoxy)(phenoxy)phosphoryl)amino)-3-phenylpropanoate] was tested, and the EC50 ([1]; HeLa) was 6720 nM.

COC(=O)[C@H](C)N[P@](=O)(OC[C@H]1O[C@@](C#N)(c2ccc3c(N)ncnn23)[C@H](O)[C@@H]1O)Oc1ccccc1 [Compound 26, (S)-methyl 2-(((S)-(((2R,3S,4R,5R)-5-(4-aminopyrrolo[2,1-f][1,2,4]triazin-7-yl)-5-cyano-3,4-dihydroxytetrahydrofuran-2-yl)methoxy)(phenoxy)phosphoryl)amino)propanoate] showed an EC50 ([1]; HeLa) of 970 nM, an EC50 [1] of 1100 nM and an EC50 ([3]; Macrophage) of 1180 nM. It also gave an EC50 [3] of 1290 nM and an EC50 ([4]; Zaire ebolavirus) of 283 nM.

Work on C[C@H](N[P@](=O)(OC[C@H]1O[C@@](C#N)(c2ccc3c(N)ncnn23)[C@H](O)[C@@H]1O)Oc1ccccc1)C(=O)OCC(C)(C)C [Compound 27, (S)-neopentyl 2-(((S)-(((2R,3S,4R,5R)-5-(4-aminopyrrolo[2,1-f][1,2,4]triazin-7-yl)-5-cyano-3,4-dihydroxytetrahydrofuran-2-yl)methoxy)(phenoxy)phosphoryl)amino) propanoate] yielded an EC50 ([1]; HeLa) of 182 nM and an EC50 ([4]; Zaire ebolavirus) of 82 nM.

C[C@H](NP(=O)(OC[C@H]1O[C@@](C#N)(c2ccc3c(N)ncnn23)[C@H](O)[C@@H]1O)Oc1ccccc1)C(=O)OC1CCCC1 (stereo partly drawn) [Compound 28, (2S)-cyclopentyl 2-(((((2R,3S,4R,5R)-5-(4-aminopyrrolo[2,1-f][1,2,4]triazin-7-yl)-5-cyano-3,4-dihydroxytetrahydrofuran-2-yl)methoxy)(phenoxy)phosphoryl)amino) propanoate] gave an EC50 ([1]; HeLa) of 975 nM, an EC50 [1] of 682 nM and an EC50 ([3]; Macrophage) of 120 nM. The EC50 ([4]; Zaire ebolavirus) was 102 nM.

With C[C@H](NP(=O)(OC[C@H]1O[C@@](C#N)(c2ccc3c(N)ncnn23)[C@H](O)[C@@H]1O)Oc1ccccc1)C(=O)OC1CCCCC1 (stereo partly drawn) [Compound 29, (2S)-cyclohexyl 2-(((((2R,3S,4R,5R)-5-(4-aminopyrrolo[2,1-f][1,2,4]triazin-7-yl)-5-cyano-3,4-dihydroxytetrahydrofuran-2-yl)methoxy)(phenoxy)phosphoryl)amino) propanoate] the EC50 ([1]; HeLa) was 275 nM.

With CCOC(=O)C(C)(C)NP(=O)(OC[C@H]1O[C@@](C#N)(c2ccc3c(N)ncnn23)[C@H](O)[C@@H]1O)Oc1ccccc1 (stereo partly drawn) [Compound 30, ethyl 2-(((((2R,3S,4R,5R)-5-(4-aminopyrrolo[2,1-f][1,2,4]triazin-7-yl)-5-cyano-3,4-dihydroxytetrahydrofuran-2-yl)methoxy)(phenoxy)phosphoryl)amino)-2-methylpropanoate] the EC50 ([1]; HeLa) was greater than 20000 nM, the EC50 ([3]; Macrophage) was 1230 nM and the EC50 ([4]; Zaire ebolavirus) was 11100 nM.

For CC(C)OC(=O)C(C)(C)NP(=O)(OC[C@H]1O[C@@](C#N)(c2ccc3c(N)ncnn23)[C@H](O)[C@@H]1O)Oc1ccccc1 (stereo partly drawn) [Compound 31, Isopropyl 2-(((((2R,3S,4R,5R)-5-(4-aminopyrrolo[2,1-f][1,2,4]triazin-7-yl)-5-cyano-3,4-dihydroxytetrahydrofuran-2-yl)methoxy)(phenoxy)phosphoryl)amino)-2-methylpropanoate], the EC50 ([1]; HeLa) was greater than 20000 nM, the EC50 [1] was greater than 10000 nM and the EC50 ([3]; Macrophage) was 1230 nM. The EC50 ([4]; Zaire ebolavirus) was 11100 nM.

Reference: patent US20160361330A1 (priority 2014, published 2016)
